Experimental data taken from patent US20090239841A1, “Diaryl Ureas as CB1 Antagonists” (priority 2004, published 2009).

target: T1, hCB1 (Homo sapiens, UniProt P21554); assay: Agonist-induced GTP binding (GTPγ35S) assay at CB1, Example 8; type: biochemical; conditions: IC50 at CB1, determined as described in Example 8; read-out: IC50
T1 construct: made in house; host or cells: Sf9 insect cells (baculovirus), P2 membranes
Outline: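 Membranes from Sf9 cells co-expressing hCB1 and heterotrimeric G-protein (10 μg protein) in Tris pH 7.4 buffer with 5 μM GDP. Test compounds (10^−10–10^−5 M) competed against 1 nM CP55,940 with […] GTPγ35S, 60 min at room temperature. Filter-bound radioactivity by scintillation, expressed as percent above basal.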

T1 sequence (P21554 whole entry): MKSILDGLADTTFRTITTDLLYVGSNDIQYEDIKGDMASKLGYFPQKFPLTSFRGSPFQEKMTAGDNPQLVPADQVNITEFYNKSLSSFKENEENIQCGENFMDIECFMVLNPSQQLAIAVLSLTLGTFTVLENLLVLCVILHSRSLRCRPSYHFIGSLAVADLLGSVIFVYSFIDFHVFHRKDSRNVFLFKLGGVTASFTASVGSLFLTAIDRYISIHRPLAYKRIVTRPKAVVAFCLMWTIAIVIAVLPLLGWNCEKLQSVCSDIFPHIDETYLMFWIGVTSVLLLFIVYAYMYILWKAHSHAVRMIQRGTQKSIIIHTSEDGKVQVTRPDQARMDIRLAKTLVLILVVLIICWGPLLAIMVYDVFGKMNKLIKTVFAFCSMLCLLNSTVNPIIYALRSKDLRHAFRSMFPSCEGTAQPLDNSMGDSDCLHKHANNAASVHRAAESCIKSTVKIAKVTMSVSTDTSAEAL

Q: With `Cc1ccc(NC(=O)Nc2ccc(F)cc2)cc1F` [Compound 430, 1-(3-fluoro-4-methylphenyl)-3-(4-fluorophenyl)urea] as the molecule, how does the IC50 read?
A: < 2000 nM

Q: For `O=C(Nc1cccc(F)c1)Nc1ccc2c(c1)CCC2` [Compound 431, 1-(2,3-dihydro-1H-inden-5-yl)-3-(3-fluorophenyl)urea], which IC50 is on record?
A: < 2000 nM

Q: Which IC50 does the source give for `O=C(Nc1ccc(F)cc1)Nc1ccc2c(c1)CCC2` [Compound 432, 1-(2,3-dihydro-1H-inden-5-yl)-3-(4-fluorophenyl)urea] here?
A: < 2000 nM

Q: `Cc1ccc(NC(=O)Nc2cccc(F)c2)cc1Cl` [Compound 433, 1-(3-chloro-4-methylphenyl)-3-(3-fluorophenyl)urea] was tested. Which IC50 did it give?
A: < 2000 nM

Q: How did the IC50 turn out when `Cc1ccc(NC(=O)Nc2ccc(F)cc2)cc1Cl` [Compound 434, 1-(3-chloro-4-methylphenyl)-3-(4-fluorophenyl)urea] was run?
A: < 2000 nM

Q: With `Cc1ccc(NC(=O)Nc2ccccc2)cc1Cl` [Compound 435, 1-(3-chloro-4-methylphenyl)-3-phenylurea] as the molecule, how does the IC50 read?
A: < 2000 nM

Q: Which IC50 does the source give for `CCc1ccc(NC(=O)Nc2ccc(C)c(C)c2)cc1` [Compound 436, 1-(3,4-dimethylphenyl)-3-(4-ethylphenyl)urea] here?
A: < 2000 nM

Q: Which IC50 does the source give for `Cc1ccc(NC(=O)Nc2ccc(Cl)cc2)cc1C` [Compound 437, 1-(4-chlorophenyl)-3-(3,4-dimethylphenyl)urea] here?
A: < 2000 nM

Q: `CCc1cccc(NC(=O)Nc2ccc(C)c(F)c2)c1` [Compound 438, 1-(3-ethylphenyl)-3-(3-fluoro-4-methylphenyl)urea] was tested. Which IC50 did it give?
A: < 2000 nM

Q: With `CCc1ccc(NC(=O)Nc2ccc(C)c(F)c2)cc1` [Compound 439, 1-(4-ethylphenyl)-3-(3-fluoro-4-methylphenyl)urea] as the molecule, how does the IC50 read?
A: < 2000 nM

Q: Which IC50 does the source give for `CCc1ccc(NC(=O)Nc2ccc(F)c(C)c2)cc1` [Compound 440, 1-(4-ethylphenyl)-3-(4-fluoro-3-methylphenyl)urea] here?
A: < 2000 nM

Q: Which IC50 does the source give for `CCc1ccc(NC(=O)Nc2ccc(F)c(F)c2)cc1` [Compound 441, 1-(3,4-difluorophenyl)-3-(4-ethylphenyl)urea] here?
A: < 2000 nM

Q: With `CCc1ccc(NC(=O)Nc2ccc3c(c2)CCC3)cc1` [Compound 442, 1-(2,3-dihydro-1H-inden-5-yl)-3-(4-ethylphenyl)urea] as the molecule, how does the IC50 read?
A: < 2000 nM

Q: Which IC50 does the source give for `O=C(Nc1ccc(Cl)cc1)Nc1ccc2c(c1)CCC2` [Compound 443, 1-(4-chlorophenyl)-3-(2,3-dihydro-1H-inden-5-yl)urea] here?
A: < 2000 nM

Q: How did the IC50 turn out when `CCc1ccc(NC(=O)Nc2ccc(C)c(Cl)c2)cc1` [Compound 444, 1-(3-chloro-4-methylphenyl)-3-(4-ethylphenyl)urea] was run?
A: < 2000 nM

Q: Which IC50 does the source give for `Cc1ccc(NC(=O)Nc2ccc(Cl)cc2)cc1Cl` [Compound 445, 1-(3-chloro-4-methylphenyl)-3-(4-chlorophenyl)urea] here?
A: < 2000 nM

Q: For `CCc1ccc(NC(=O)Nc2ccc(Cl)c(C)c2)cc1` [Compound 446, 1-(4-chloro-3-methylphenyl)-3-(4-ethylphenyl)urea], which IC50 is on record?
A: < 2000 nM

Q: How did the IC50 turn out when `Cc1ccc(NC(=O)Nc2cccc(C#N)c2)cc1C` [Compound 447, 1-(3-cyanophenyl)-3-(3,4-dimethylphenyl)urea] was run?
A: < 2000 nM

Q: `Cc1ccc(NC(=O)Nc2cccc(C#N)c2)cc1F` [Compound 448, 1-(3-cyanophenyl)-3-(3-fluoro-4-methylphenyl)urea] was tested. Which IC50 did it give?
A: < 2000 nM

Q: Which IC50 does the source give for `CC(=O)c1cccc(NC(=O)Nc2ccc(C)c(F)c2)c1` [Compound 449, 1-(3-acetylphenyl)-3-(3-fluoro-4-methylphenyl)urea] here?
A: < 2000 nM

Q: For `CC(=O)c1ccc(NC(=O)Nc2ccc(C)c(F)c2)cc1` [Compound 450, 1-(4-acetylphenyl)-3-(3-fluoro-4-methylphenyl)urea], which IC50 is on record?
A: < 2000 nM

Q: `CC(=O)c1ccc(NC(=O)Nc2ccc(F)c(C)c2)cc1` [Compound 451, 1-(4-acetylphenyl)-3-(4-fluoro-3-methylphenyl)urea] was tested. Which IC50 did it give?
A: < 2000 nM

Q: Which IC50 does the source give for `CC(=O)c1ccc(NC(=O)Nc2ccc(F)c(F)c2)cc1` [Compound 452, 1-(4-acetylphenyl)-3-(3,4-difluorophenyl)urea] here?
A: < 2000 nM

Q: `N#Cc1ccc(NC(=O)Nc2ccc3c(c2)CCC3)cc1` [Compound 453, 1-(4-cyanophenyl)-3-(2,3-dihydro-1H-inden-5-yl)urea] was tested. Which IC50 did it give?
A: < 2000 nM

Q: `N#Cc1cccc(NC(=O)Nc2ccc3c(c2)CCC3)c1` [Compound 454, 1-(3-cyanophenyl)-3-(2,3-dihydro-1H-inden-5-yl)urea] was tested. Which IC50 did it give?
A: < 2000 nM

Q: How did the IC50 turn out when `CC(=O)c1cccc(NC(=O)Nc2ccc3c(c2)CCC3)c1` [Compound 455, 1-(3-acetylphenyl)-3-(2,3-dihydro-1H-inden-5-yl)urea] was run?
A: < 2000 nM

Q: `CC(=O)c1ccc(NC(=O)Nc2ccc3c(c2)CCC3)cc1` [Compound 456, 1-(4-acetylphenyl)-3-(2,3-dihydro-1H-inden-5-yl)urea] was tested. Which IC50 did it give?
A: < 2000 nM

Q: How did the IC50 turn out when `Cc1ccc(NC(=O)Nc2cccc(C#N)c2)cc1Cl` [Compound 457, 1-(3-chloro-4-methylphenyl)-3-(3-cyanophenyl)urea] was run?
A: < 2000 nM

Q: Which IC50 does the source give for `CC(=O)c1cccc(NC(=O)Nc2ccc(C)c(Cl)c2)c1` [Compound 458, 1-(3-acetylphenyl)-3-(3-chloro-4-methylphenyl)urea] here?
A: < 2000 nM

Q: Which IC50 does the source give for `Cc1cccc(NC(=O)Nc2ccc(CC#N)cc2)c1` [Compound 459, 1-[4-(cyanomethyl)phenyl]-3-(3-methylphenyl)urea] here?
A: < 2000 nM

Q: For `Cc1ccc(NC(=O)Nc2ccc(CC#N)cc2)cc1` [Compound 460, 1-[4-(cyanomethyl)phenyl]-3-(4-methylphenyl)urea], which IC50 is on record?
A: < 2000 nM

Q: For `N#CCc1ccc(NC(=O)Nc2cccc(F)c2)cc1` [Compound 461, 1-[4-(cyanomethyl)phenyl]-3-(3-fluorophenyl)urea], which IC50 is on record?
A: < 2000 nM

Q: For `N#CCc1ccc(NC(=O)Nc2ccc(F)cc2)cc1` [Compound 462, 1-[4-(cyanomethyl)phenyl]-3-(4-fluorophenyl)urea], which IC50 is on record?
A: < 2000 nM

Q: How did the IC50 turn out when `Cc1ccc(NC(=O)Nc2ccc([N+](=O)[O-])cc2)cc1` [Compound 463, 1-(4-methylphenyl)-3-(4-nitrophenyl)urea] was run?
A: < 2000 nM

Q: With `Cc1cccc(NC(=O)Nc2ccc(OCC#N)cc2)c1` [Compound 464, 1-[4-(cyanomethoxy)phenyl]-3-(3-methylphenyl)urea] as the molecule, how does the IC50 read?
A: < 2000 nM

Q: For `Cc1ccc(NC(=O)Nc2ccc(OCC#N)cc2)cc1` [Compound 465, 1-[4-(cyanomethoxy)phenyl]-3-(4-methylphenyl)urea], which IC50 is on record?
A: < 2000 nM

Q: How did the IC50 turn out when `N#CCOc1ccc(NC(=O)Nc2cccc(F)c2)cc1` [Compound 466, 1-[4-(cyanomethoxy)phenyl]-3-(3-fluorophenyl)urea] was run?
A: < 2000 nM

Q: Which IC50 does the source give for `N#CCOc1ccc(NC(=O)Nc2ccc(F)cc2)cc1` [Compound 467, 1-[4-(cyanomethoxy)phenyl]-3-(4-fluorophenyl)urea] here?
A: < 2000 nM

Q: How did the IC50 turn out when `CCC(=O)c1ccc(NC(=O)Nc2cccc(C)c2)cc1` [Compound 468, 1-(3-methylphenyl)-3-(4-propionylphenyl)urea] was run?
A: < 2000 nM

Q: `CCC(=O)c1ccc(NC(=O)Nc2ccc(C)cc2)cc1` [Compound 469, 1-(4-methylphenyl)-3-(4-propionylphenyl)urea] was tested. Which IC50 did it give?
A: < 2000 nM

Q: `COC(=O)c1ccc(NC(=O)Nc2ccc(C)cc2)cc1` [Compound 470, methyl 4-({[(4-methylphenyl)amino]carbonyl}amino)benzoate] was tested. Which IC50 did it give?
A: < 2000 nM

Q: With `COC(=O)c1ccc(NC(=O)Nc2cccc(F)c2)cc1` [Compound 471, methyl 4-({[(3-fluorophenyl)amino]carbonyl}amino)benzoate] as the molecule, how does the IC50 read?
A: < 2000 nM
